Reference: patent publication US3963716A, “Novel 1-phthalazone derivative, a process for its preparation and a pharmaceutical composition containing it” (priority 1973, dated 1976)
Like-named read-outs stand apart in the source and are kept apart here.

Assays:
[1] = in vivo; conditions: mouse, oral, mice
[2] = tested on: aorta of rabbits; assay: prevention of cholesterol-induced atherosclerosis in rabbits (surface covered by fatty streaks in the aorta); format: in vivo, albino rabbits; conditions: rabbit aorta; oral 1 mg/Kg daily, 15 weeks, diet with 1% cholesterol; placebo 54.6±5.4
Procedure: Forty healthy albino rabbits of the same age and of the same family were used in the experiment.
After the completion of the regimen, the rabbits were killed and the percentage of the surface covered by fatty streaks was measured in each aorta of the rabbits stained with Sundan IV. The percent of the surface covered by fatty streaks in the aorta of the rabbits was measured by the procedure described in T. Shimamoto, F. Numano, T. Fujita; American Heart Journal, 71, 2216 (1966).

[3] = tested on: spontaneously hypertensive rats; assay: hypotensive effect in spontaneously hypertensive rats; format: in vivo, rat; conditions: for hypotensive effect (in words): intraperitoneal or oral doses up to 50 mg/Kg
Text: The present compounds have a unique hypotensive effect in spontaneously hypertensive rats. The spontaneously hypertensive rats, abbreviated as SH rats, are produced by selective breeding of spontaneously hypertensive rats and continuous inbreeding with hypertensive mates, and they might be acknowledged as genetically hypertensive. It is believed that SH rats have a striking similarity to human essential hypertension and their reactions can be extrapolated to this morbid condition.
In the blood pressure test, SH rats weighing 210 - 250 g and aged 13-15 weeks were used, and the compounds tested were administered intraperitoneally. Each value in the Table V hows an average figure for three rats.

[4] = tested on: human platelet; assay: human platelet aggregation in vitro induced by ADP or adrenaline (CPRP); format: cell-based; conditions: 200 s
Procedure: Samples of human CPRP (citrated platelet-rich plasma) were incubated at 37°C. for 200 sec. with 1/10 volume of saline containing various amount of the compound to be tested. To the mixture was then added ADP (3μMole) or adrenaline (1 μg/ml). Intensity of primary and secondary aggregation was measured with a platelet aggregation meter (Chrono-Log, Model 300).
Intensity of ADP- or adrenaline-induced aggregation of each sample, which was incubated with the compound, was compared with that of the same sample incubated with saline. The ratio was expressed as a percentage of intensity of aggregation with the compound against one with saline.
The intensity of primary and secondary aggregation of platelets was measured by the procedure described in H. Yamazaki, T. Sano, et al.; title[Platelet Functions in Thromboembolic Disorders] Thrombosis et Diatheses Haemorrhagica "in press" and the references cited therein.

[5] = tested on: cyclic AMP phosphodiesterase; assay: inhibition of cyclic AMP phosphodiesterase, human platelet; format: biochemical; conditions: 50% inhibition of cyclic AMP phosphodiesterase; read-out: I50, Platelet (human)
Procedure: (§1) The procedure of the experiment was carried out in accordance with the method described in H. Hidaka and M. Shibuya: title "A new assay of cyclic nucleotide phosphodiesterase and its application to humans", Biochemical Medicine, (in press).

[6] = tested on: aortic wall of rabbits; assay: regression of preestablished cholesterol-induced atherosclerosis in rabbits (cholesterol content of the aortic wall); format: in vivo, albino rabbits; conditions: oral 1 mg/Kg daily, head prints (μg)
Text: For the regressive test, 50 healthy albino rabbits were fed with a diet containing 1% cholesterol for 15 weeks. Five rabbits were killed at the 15th week of the cholesterol feeding and the remaining 45 rabbits were divided into 3 groups. […] Five each of the rabbits of the 3 groups were killed after 6, 10 and 20 weeks, respectively. The total contents of cholesterol in the aortic wall were estimated by gas chromatography, the results of which are shown in the Table III.
1. The total content of cholesterol in the aortic wall was measured by the procedure described in T. Shimamoto, F. Numano, T. Fujita et al.; Asian med. Journal, 8. 12 (1965) 2. […] 3. The total chloesterol contents indicated in Table III were shown in μg per one mg of the dried aortic wall. The value in the Table is the average figure for 5 rabbits

[7] = target: cyclic AMP phosphodiesterase; assay: inhibition of cyclic AMP phosphodiesterase, aortic wall intima (rabbit); format: biochemical; conditions: 50% inhibition of cyclic AMP phosphodiesterase; read-out: I50, Aortic Wall, Intima (rabbit)
Procedure: as §1

[8] = target: cyclic AMP phosphodiesterase; assay: inhibition of cyclic AMP phosphodiesterase, aortic wall media (rabbit); format: biochemical; conditions: 50% inhibition of cyclic AMP phosphodiesterase; read-out: I50, Aortic Wall, Media (rabbit)
Procedure: as §1

[9] = 50 mg/Kg intraperitoneally, 1 hr
[10] = 50 mg/Kg intraperitoneally, 3 hr
[11] = 50 mg/Kg intraperitoneally, 6 hr
[12] = 50 mg/Kg intraperitoneally, 24 hr
[13] = 50 mg/Kg intraperitoneally, 48 hr
[14] = 50 mg/Kg intraperitoneally, before dosing
[15] = 40 μg/ml, intensity with compound vs saline, read-out: Inhibition ratio, primary aggregation, ADP 3 μM
[16] = 40 μg/ml, intensity with compound vs saline, read-out: Inhibition ratio, secondary aggregation, ADP 3 μM
[17] = 80 μg/ml, intensity with compound vs saline, read-out: Inhibition ratio, primary aggregation, ADP 3 μM
[18] = 80 μg/ml, intensity with compound vs saline, read-out: Inhibition ratio, secondary aggregation, ADP 3 μM
[19] = read-out: Inhibition ratio, primary aggregation, Adrenaline 1μg/ml
[20] = read-out: Inhibition ratio, secondary aggregation, Adrenaline 1μg/ml
[21] = 3.1 mg/Kg intraperitoneally, 1 hr
[22] = 3.1 mg/Kg intraperitoneally, 3 hr
[23] = 3.1 mg/Kg intraperitoneally, 6 hr
[24] = 3.1 mg/Kg intraperitoneally, 24 hr
[25] = 3.1 mg/Kg intraperitoneally, 48 hr
[26] = 12.5 mg/Kg intraperitoneally, 1 hr
[27] = 12.5 mg/Kg intraperitoneally, 3 hr
[28] = 12.5 mg/Kg intraperitoneally, 6 hr
[29] = 12.5 mg/Kg intraperitoneally, 24 hr
[30] = 12.5 mg/Kg intraperitoneally, 48 hr
[31] = 5 μg/ml, intensity with compound vs saline, read-out: Inhibition ratio, primary aggregation, ADP 3 μM
[32] = 5 μg/ml, intensity with compound vs saline, read-out: Inhibition ratio, secondary aggregation, ADP 3 μM
[33] = 10 μg/ml, intensity with compound vs saline, read-out: Inhibition ratio, primary aggregation, ADP 3 μM
[34] = 10 μg/ml, intensity with compound vs saline, read-out: Inhibition ratio, secondary aggregation, ADP 3 μM
[35] = 20 μg/ml, intensity with compound vs saline, read-out: Inhibition ratio, primary aggregation, ADP 3 μM
[36] = 20 μg/ml, intensity with compound vs saline, read-out: Inhibition ratio, secondary aggregation, ADP 3 μM

O=c1[nH]nc(CO)c2ccccc12 [4-hydroxymethyl-1-phthalazone]
LD50 [1]: 4000 mg/kg | Percent of surface covered by fatty streaks [2]: 36.8±5.2% | Blood Pressure [3, 9]: 178 | Blood Pressure [3, 10]: 179 | Blood Pressure [3, 11]: 180 | Blood Pressure [3, 12]: 182 | Blood Pressure [3, 13]: 184 | Blood Pressure [3, 14]: 183 | hypotensive effect (in words) [3]: did not exhibit a significant hypotensive effect | activity at 40 µg/mL [4, 15]: 86.2 ± 2.5% | activity at 40 µg/mL [4, 16]: 72 ± 6.8% | activity at 80 µg/mL [4, 17]: 82.4 ± 3.2% | activity at 80 µg/mL [4, 18]: 64.9 ± 6.7% | activity at 300 µg/mL ([4]; 300 μg/ml, intensity with compound vs saline, read-out: Inhibition ratio, primary aggregation, ADP 3 μM): 84.5 ± 2% | activity at 300 µg/mL ([4]; 300 μg/ml, intensity with compound vs saline, read-out: Inhibition ratio, secondary aggregation, ADP 3 μM): 68.3 ± 3.8% | activity at 40 µg/mL [4, 19]: 98.8 ± 5.9% | activity at 80 µg/mL [4, 19]: 92.3 ± 6% | activity at 300 µg/mL [4, 19]: 85.4 ± 3.1% | activity at 40 µg/mL [4, 20]: 85.9 ± 10.1% | activity at 80 µg/mL [4, 20]: 69.2 ± 7.2% | activity at 300 µg/mL [4, 20]: 60.2 ± 8%

CCOC(=O)c1c(C)cc2c(CO)n[nH]c(=O)c2c1C [6,8-dimethyl-7-ethoxycarbonyl-4-hydroxymethyl-1-phthalazone]
IC50 [5]: 4.1 µM | Cholesterol content (aortic wall, total) ([6]; 6 weeks, placebo 32.1±3.6): 20.8±3.1 μg/mg dry weight | Cholesterol content (aortic wall, total) ([6]; 10 weeks, placebo 33.8±3.0): 9.7±4.2 μg/mg dry weight | Cholesterol content (aortic wall, total) ([6]; 20 weeks, placebo 29.5±5.4): 4.2±1.8 μg/mg dry weight | Percent of surface covered by fatty streaks [2]: 16.2±4.3% | IC50 [7]: 1.6 µM | IC50 [8]: 24 µM | Blood Pressure [3, 21]: 170 | Depression % (blood pressure) [3, 21]: 1.7% | Blood Pressure [3, 22]: 138 | Depression % (blood pressure) [3, 22]: 20.2% | Blood Pressure [3, 23]: 110 | Depression % (blood pressure) [3, 23]: 36.4% | Blood Pressure [3, 24]: 135 | Depression % (blood pressure) [3, 24]: 22.0% | Blood Pressure [3, 25]: 150 | Depression % (blood pressure) [3, 25]: 13.3% | Blood Pressure ([3]; 3.1 mg/Kg intraperitoneally, before dosing): 173 | Blood Pressure [3, 26]: 173 | Depression % (blood pressure) [3, 26]: 1.1% | Blood Pressure [3, 27]: 155 | Depression % (blood pressure) [3, 27]: 11.4% | Blood Pressure [3, 28]: 120 | Depression % (blood pressure) [3, 28]: 28.6% | Blood Pressure [3, 29]: 142 | Depression % (blood pressure) [3, 29]: 18.9% | Blood Pressure [3, 30]: 155 | Depression % (blood pressure) [3, 30]: 11.4% | Blood Pressure ([3]; 12.5 mg/Kg intraperitoneally, before dosing): 175 | Blood Pressure [3, 9]: 165 | Depression % (blood pressure) [3, 9]: 2.9% | Blood Pressure [3, 10]: 132 | Depression % (blood pressure) [3, 10]: 22.4% | Blood Pressure [3, 11]: 110 | Depression % (blood pressure) [3, 11]: 35.3% | Blood Pressure [3, 12]: 145 | Depression % (blood pressure) [3, 12]: 14.7% | Blood Pressure [3, 13]: 152 | Depression % (blood pressure) [3, 13]: 10.6% | Blood Pressure [3, 14]: 170 | activity at 2.5 µg/mL ([4]; 2.5 μg/ml, intensity with compound vs saline, read-out: Inhibition ratio, primary aggregation, ADP 3 μM): 91.7 ± 8.3% | activity at 2.5 µg/mL ([4]; 2.5 μg/ml, intensity with compound vs saline, read-out: Inhibition ratio, secondary aggregation, ADP 3 μM): 96 ± 8.7% | activity at 5 µg/mL [4, 31]: 93.3 ± 8.9% | activity at 5 µg/mL [4, 32]: 59.8 ± 11.3% | activity at 10 µg/mL [4, 33]: 90.6 ± 3.8% | activity at 10 µg/mL [4, 34]: 49.9 ± 6.9% | activity at 20 µg/mL [4, 35]: 93.1 ± 8.2% | activity at 20 µg/mL [4, 36]: 56.2 ± 6.3% | activity at 40 µg/mL [4, 15]: 68.5 ± 5.2% | activity at 40 µg/mL [4, 16]: 41.9 ± 2.2% | activity at 2.5 µg/mL [4, 19]: 88.5 ± 3.1% | activity at 5 µg/mL [4, 19]: 82.4 ± 3% | activity at 10 µg/mL [4, 19]: 89.1 ± 7.3% | activity at 20 µg/mL [4, 19]: 97.5 ± 7.5% | activity at 2.5 µg/mL [4, 20]: 52.8 ± 7.5% | activity at 5 µg/mL [4, 20]: 52.4 ± 7.3% | activity at 10 µg/mL [4, 20]: 57.1 ± 16% | activity at 20 µg/mL [4, 20]: 99.6 ± 13.2%

CCOC(=O)c1ccc2c(CO)n[nH]c(=O)c2c1 [7-ethoxycarbonyl-4-hydroxymethyl-1-phthalazone]
IC50 [5]: 57 µM | LD50 [1]: 5000 mg/kg | Cholesterol content (aortic wall, total) ([6]; 6 weeks, placebo 32.1±3.6): 24.6±3.0 μg/mg dry weight | Cholesterol content (aortic wall, total) ([6]; 10 weeks, placebo 33.8±3.0): 12.2±3.5 μg/mg dry weight | Cholesterol content (aortic wall, total) ([6]; 20 weeks, placebo 29.5±5.4): 6.4±2.7 μg/mg dry weight | Percent of surface covered by fatty streaks [2]: 28.8±3.6% | IC50 [7]: 52 µM | IC50 [8]: 144 µM | Blood Pressure [3, 9]: 165 | Blood Pressure [3, 10]: 176 | Blood Pressure [3, 11]: 180 | Blood Pressure [3, 12]: 179 | Blood Pressure [3, 13]: 184 | Blood Pressure [3, 14]: 178 | hypotensive effect (in words) [3]: did not exhibit a significant hypotensive effect | activity at 5 µg/mL [4, 31]: 90.5 ± 5.6% | activity at 5 µg/mL [4, 32]: 84.9 ± 6.3% | activity at 10 µg/mL [4, 33]: 81.9 ± 5.2% | activity at 10 µg/mL [4, 34]: 67.1 ± 6.3% | activity at 20 µg/mL [4, 35]: 77 ± 5.1% | activity at 20 µg/mL [4, 36]: 58.6 ± 7.6% | activity at 80 µg/mL [4, 17]: 62.9 ± 5% | activity at 80 µg/mL [4, 18]: 15.7 ± 0.4% | activity at 5 µg/mL [4, 19]: 106 ± 6.9% | activity at 10 µg/mL [4, 19]: 97 ± 4.1% | activity at 20 µg/mL [4, 19]: 92.9 ± 16.9% | activity at 5 µg/mL [4, 20]: 80.8 ± 13.9% | activity at 10 µg/mL [4, 20]: 82.1 ± 9.5% | activity at 20 µg/mL [4, 20]: 71.7 ± 13.5% | activity at 80 µg/mL [4, 20]: 33 ± 7.1%
